From paper PMC12396409, “Screening and hit evaluation of a microbial metabolite library against the pathogenic Plasmodium falciparum and Toxoplasma gondii parasites” (International Journal for Parasitology: Drugs and Drug …, 2025)
Read-outs that look alike come from different tables or passages of the source. Where a SMILES comes first, the peptide text is derived from it. [ ]: non-standard residue; d: D form. Aoe = N[C@@H](CCCCCC(=O)[C@@H]1CO1)C(=O)O; aIle = CC[C@@H](C)[C@H](N)C(=O)O

Tests used:
[1] = system: P. falciparum 3D7 parasites; assay: P. falciparum growth inhibition assay, 1-cycle (72 h treatment), SYBR DNA staining (library screen at 2 μg/mL and dose-response); type: cell-based, Plasmodium falciparum; conditions: for activity at 2 µg/mL: Plasmodium falciparum, 3D7
[2] = system: T. gondii RH strain (RH-Tub-eYFP) tachyzoites; assay: microbe, parasite or virus in culture; type: cell-based, Toxoplasma gondii; conditions: 72 h; for percent parasite growth at 2 µg/mL: Toxoplasma gondii
[3] = system: P. falciparum 3D7 parasites; assay: P. falciparum growth inhibition assay, 2-cycle (120 h treatment), delayed-death screen and dose-response; type: cell-based, Plasmodium falciparum; conditions: for activity at 2 µg/mL: Plasmodium falciparum, 3D7
[4] = library screen at 2 μg/mL, 72 h, % growth, replicate 1
[5] = library screen at 2 μg/mL, 72 h, % growth, replicate 2
[6] = library screen at 2 μg/mL, % growth, replicate 1
[7] = library screen at 2 μg/mL, % growth, replicate 2
[8] = library screen at 2 μg/mL, 120 h, % growth, replicate 1
[9] = library screen at 2 μg/mL, 120 h, % growth, replicate 2
[10] = P. falciparum, 72 h, parasite screen 2 μg/mL, % growth, replicate 1
[11] = P. falciparum, 72 h, parasite screen 2 μg/mL, % growth, replicate 2
[12] = T. gondii, parasite screen 2 μg/mL, % growth, replicate 1
[13] = T. gondii, parasite screen 2 μg/mL, % growth, replicate 2
[14] = P. falciparum, 120 h, parasite screen 2 μg/mL, % growth, replicate 1
[15] = P. falciparum, 120 h, parasite screen 2 μg/mL, % growth, replicate 2
[16] = P. falciparum, 72 h, screen at 2 μg/mL, replicate 1
[17] = P. falciparum, 72 h, screen at 2 μg/mL, replicate 2
[18] = T. gondii, screen at 2 μg/mL, replicate 1
[19] = T. gondii, screen at 2 μg/mL, replicate 2
[20] = P. falciparum, 120 h, screen at 2 μg/mL, replicate 1
[21] = P. falciparum, 120 h, screen at 2 μg/mL, replicate 2

Compound: Cc1c2c(c(O)c3c(O)cccc13)C(=O)O[C@@H]2[C@H]1[C@H](N(C)C)C(O)=C(C(N)=O)C(=O)[C@@H]1O [Apooxytetracycline, beta-]
- Pf_72h_%Growth_Rep1 [1, 4]: 86.47%
- Pf_72h_%Growth_Rep2 [1, 5]: 89.55%
- Tg_72h_%Growth_Rep1 [2, 6]: 117.82%
- Tg_72h_%Growth_Rep2 [2, 7]: 102.07%
- Pf_120h_%Growth_Rep1 [3, 8]: 69.86%
- Pf_120h_%Growth_Rep2 [3, 9]: 97.44%

Compound: CC(=O)O[C@@H]1CC(=O)OC(C)(C)[C@H]2CC[C@@]3(C)[C@@H](CC=C(C)[C@]34C[C@]3(OC(C)=C(C)C3=O)C(=O)O4)[C@@]21C [Setosusin]
- Pf_72h_%Growth_Rep1 [1, 10]: 71.51%
- Pf_72h_%Growth_Rep2 [1, 11]: 99.05%
- Tg_72h_%Growth_Rep1 [2, 12]: 121.79%
- Tg_72h_%Growth_Rep2 [2, 13]: 85.10%
- Pf_120h_%Growth_Rep1 [3, 14]: 76.96%
- Pf_120h_%Growth_Rep2 [3, 15]: 104.05%

Compound: CC[C@@H](C(=O)[C@@H](C)[C@@H](O)[C@H](C)[C@@H]1O[C@@H]([C@@H](CC)C(=O)O)CC[C@@H]1C)[C@H]1O[C@]2(C=C[C@@H](O)[C@]3(CC[C@@](C)([C@H]4CC[C@](O)(CC)[C@H](C)O4)O3)O2)[C@H](C)C[C@@H]1C [Salinomycin sodium]
- Pf_72h_%Growth_Rep1 [1, 10]: 3.74%
- Pf_72h_%Growth_Rep2 [1, 11]: -3.65%
- Tg_72h_%Growth_Rep1 [2, 12]: 1.25%
- Tg_72h_%Growth_Rep2 [2, 13]: 0.43%
- Pf_120h_%Growth_Rep1 [3, 14]: 8.77%
- Pf_120h_%Growth_Rep2 [3, 15]: -2.16%

Compound: C=Cc1cc(OC)c2c(c1)c(=O)oc1c2cc(OC)c2c(O)ccc([C@H]3O[C@H](C)[C@@H](O)[C@@H](N(C)C)[C@@H]3O)c21 [Deacetylravidomycin]
- Pf_72h_%Growth_Rep1 [1, 16]: 3.21%
- Pf_72h_%Growth_Rep2 [1, 17]: 5.95%
- Tg_72h_%Growth_Rep1 [2, 18]: 3.62%
- Tg_72h_%Growth_Rep2 [2, 19]: 4.01%
- Pf_120h_%Growth_Rep1 [3, 20]: 1.87%
- Pf_120h_%Growth_Rep2 [3, 21]: 7.89%

Compound: CC(=O)NCCc1ccc(O)cc1 [Acetyltyramine, N-]
- Pf_72h_%Growth_Rep1 [1, 4]: 85.43%
- Pf_72h_%Growth_Rep2 [1, 5]: 84.08%
- Tg_72h_%Growth_Rep1 [2, 6]: 171.49%
- Tg_72h_%Growth_Rep2 [2, 7]: 89.14%
- Pf_120h_%Growth_Rep1 [3, 8]: 85.62%
- Pf_120h_%Growth_Rep2 [3, 9]: 81.27%

Compound: CO/C1=C\C(C)=C\[C@@H](C)[C@@H](O)[C@@H](C)C/C(C)=C/C=C/[C@H](OC)[C@@H]([C@@H](C)[C@@H](O)[C@H](C)[C@@]2(O)C[C@@H](OC(=O)/C=C/C(=O)NC3=C(O)CCC3=O)[C@H](C)[C@@H](C(C)C)O2)OC1=O [Bafilomycin B1]
- Pf_72h_%Growth_Rep1 [1, 4]: 2.46%
- Pf_72h_%Growth_Rep2 [1, 5]: 1.87%
- Tg_72h_%Growth_Rep1 [2, 6]: -0.95%
- Tg_72h_%Growth_Rep2 [2, 7]: 0.68%
- Pf_120h_%Growth_Rep1 [3, 8]: 5.87%
- Pf_120h_%Growth_Rep2 [3, 9]: 11.47%

Compound: CN(C)[C@@H]1C(=O)C(C(N)=O)=C(O)[C@@]2(O)C(=O)C3=C(O)c4c(O)cccc4C[C@H]3C[C@@H]12.Cl [Sancycline hydrochloride]
- Pf_72h_%Growth_Rep1 [1, 10]: 1.26%
- Pf_72h_%Growth_Rep2 [1, 11]: 7.80%
- Tg_72h_%Growth_Rep1 [2, 12]: 58.51%
- Tg_72h_%Growth_Rep2 [2, 13]: 60.28%
- Pf_120h_%Growth_Rep1 [3, 14]: 6.81%
- Pf_120h_%Growth_Rep2 [3, 15]: 7.98%

Compound: CC1=CC2C(O)CCCC2C(C)(C(O)=C2C(=O)CNC2=O)C1CCC(C)C(O)/C(C)=C/CC(O)/C=C/C(C)C(O)/C=C/CC(O)/C=C/CC(O)CC1CCCN1C(=N)N (centres unmarked) [TPU-0037C]
- Pf_72h_%Growth_Rep1 [1, 16]: 76.69%
- Pf_72h_%Growth_Rep2 [1, 17]: 109.21%
- Tg_72h_%Growth_Rep1 [2, 18]: 129.91%
- Tg_72h_%Growth_Rep2 [2, 19]: 76.44%
- Pf_120h_%Growth_Rep1 [3, 20]: 83.44%
- Pf_120h_%Growth_Rep2 [3, 21]: 78.76%

Compound: CCCCCCCCCCC[C@@H](C[C@@H]1OC(=O)[C@H]1CCCCCC)OC(=O)[C@H](CC(C)C)NC=O [Tetrahydrolipstatin]
- activity at 2 µg/mL ([1]; P. falciparum, 72 h, screen at 2 μg/mL, replicate 1, read-out: Pf_72h_%Growth_Rep1): 74.2%
- activity at 2 µg/mL ([1]; P. falciparum, 72 h, screen at 2 μg/mL, replicate 2, read-out: Pf_72h_%Growth_Rep2): 88.8%
- percent parasite growth at 2 µg/mL ([2]; T. gondii, screen at 2 μg/mL, replicate 1, read-out: Tg_72h_%Growth_Rep1): 88.5%
- percent parasite growth at 2 µg/mL ([2]; T. gondii, screen at 2 μg/mL, replicate 2, read-out: Tg_72h_%Growth_Rep2): 98.4%
- activity at 2 µg/mL ([3]; P. falciparum, 120 h, screen at 2 μg/mL, replicate 1, read-out: Pf_120h_%Growth_Rep1): 171%
- activity at 2 µg/mL ([3]; P. falciparum, 120 h, screen at 2 μg/mL, replicate 2, read-out: Pf_120h_%Growth_Rep2): 93.3%

Compound: CC[C@H]1CCC[C@H](O[C@H]2CC[C@H](N(C)C)[C@@H](C)O2)[C@@H](C)C(=O)C2=C[C@@H]3[C@@H](C=C(C)[C@@H]4C[C@@H](O[C@@H]5O[C@@H](C)[C@H](OC)[C@@H](OC)[C@H]5OC)C[C@@H]34)[C@@H]2CC(=O)O1 [Spinosyn D]
- IC50 ([1]; 3D7, 72 h treatment, mean ± S.D., n ≥ 3, read-out: IC50 (μM), P. falciparum): > 1 µM
- Pf_72h_%Growth_Rep1 [1, 10]: 88.37%
- Pf_72h_%Growth_Rep2 [1, 11]: 73.59%
- Screen (P. falciparum) ([1]; library screen at 2 μg/mL, 3D7, 72 h, DD from the 120 h timepoint): I
- Tg_72h_%Growth_Rep1 [2, 12]: 127.19%
- Tg_72h_%Growth_Rep2 [2, 13]: 79.47%
- Pf_120h_%Growth_Rep1 [3, 14]: 102.44%
- Pf_120h_%Growth_Rep2 [3, 15]: 14.31%

Compound: C[C@@H]1NC(=O)[C@H](CCCCCC(=O)[C@@H]2CO2)NC(=O)[C@H]2CCCN2C(=O)[C@H](Cc2ccccc2)NC1=O [Alaninechlamydocin, 1-] (cyclo(AF[dP][Aoe]))
- Pf_72h_%Growth_Rep1 [1, 4]: 2.42%
- Pf_72h_%Growth_Rep2 [1, 5]: 0.98%
- Tg_72h_%Growth_Rep1 [2, 6]: 2.60%
- Tg_72h_%Growth_Rep2 [2, 7]: 2.26%
- Pf_120h_%Growth_Rep1 [3, 8]: 12.83%
- Pf_120h_%Growth_Rep2 [3, 9]: -6.34%

Compound: Albofungin
- Pf_72h_%Growth_Rep1 [1, 4]: 6.93%
- Pf_72h_%Growth_Rep2 [1, 5]: 9.97%
- Tg_72h_%Growth_Rep1 [2, 6]: -0.16%
- Tg_72h_%Growth_Rep2 [2, 7]: 2.30%
- Pf_120h_%Growth_Rep1 [3, 8]: -0.91%
- Pf_120h_%Growth_Rep2 [3, 9]: 21.65%

Compound: CC(=O)OCC12CC(O)C(C)=CC1OC1C(O)C(OC(C)=O)C2(C)C12CO2 (centres unmarked) [BIA-N1931]
- Pf_72h_%Growth_Rep1 ([1]; P. falciparum 3D7, 72 h, parasite screen at 2 μg/mL, % growth, replicate 1): 6.76%
- Pf_72h_%Growth_Rep2 ([1]; P. falciparum 3D7, 72 h, parasite screen at 2 μg/mL, % growth, replicate 2): -0.85%
- Tg_72h_%Growth_Rep1 ([2]; T. gondii, parasite screen at 2 μg/mL, % growth, replicate 1): 0.58%
- Tg_72h_%Growth_Rep2 ([2]; T. gondii, parasite screen at 2 μg/mL, % growth, replicate 2): -0.09%
- Pf_120h_%Growth_Rep1 ([3]; P. falciparum 3D7, 120 h, parasite screen at 2 μg/mL, % growth, replicate 1): 9.98%
- Pf_120h_%Growth_Rep2 ([3]; P. falciparum 3D7, 120 h, parasite screen at 2 μg/mL, % growth, replicate 2): 3.84%

Compound: COc1c2c(cc3c1c(=O)c1ccccc1n3C)OCO2 [Evoxanthine]
- Pf_72h_%Growth_Rep1 [1, 4]: 81.42%
- Pf_72h_%Growth_Rep2 [1, 5]: 82.46%
- Tg_72h_%Growth_Rep1 [2, 6]: 136.78%
- Tg_72h_%Growth_Rep2 [2, 7]: 86.81%
- Pf_120h_%Growth_Rep1 [3, 8]: 87.52%
- Pf_120h_%Growth_Rep2 [3, 9]: 89.49%

Compound: CC[C@@H](C)[C@@H]1NC(=O)[C@@H](CC(C)C)NC(=O)[C@H](CC(C)C)NC(=O)[C@H](Cc2c[nH]c3ccccc23)NC(=O)CNC(=O)[C@H](CC(N)=O)NC1=O [Desotamide] (cyclo(GWL[dL][aIle]N))
- activity at 2 µg/mL ([1]; library screen at 2 μg/mL, 72 h, % growth, replicate 1, read-out: Pf_72h_%Growth_Rep1): 67.3%
- activity at 2 µg/mL ([1]; library screen at 2 μg/mL, 72 h, % growth, replicate 2, read-out: Pf_72h_%Growth_Rep2): 64.4%
- percent parasite growth at 2 µg/mL ([2]; library screen at 2 μg/mL, % growth, replicate 1, read-out: Tg_72h_%Growth_Rep1): 120%
- percent parasite growth at 2 µg/mL ([2]; library screen at 2 μg/mL, % growth, replicate 2, read-out: Tg_72h_%Growth_Rep2): 93%
- activity at 2 µg/mL ([3]; library screen at 2 μg/mL, 120 h, % growth, replicate 1, read-out: Pf_120h_%Growth_Rep1): 36%
- activity at 2 µg/mL ([3]; library screen at 2 μg/mL, 120 h, % growth, replicate 2, read-out: Pf_120h_%Growth_Rep2): 50.7%

Compound: C/C=C/[C@@H]1C=C[C@@H]2C[C@H](C)CC[C@H]2[C@]1(C)/C(O)=C1/C(=O)[C@@H](CO)N(C)C1=O [Epiequisetin]
- Pf_72h_%Growth_Rep1 [1, 4]: 86.43%
- Pf_72h_%Growth_Rep2 [1, 5]: 84.23%
- Tg_72h_%Growth_Rep1 [2, 6]: 129.84%
- Tg_72h_%Growth_Rep2 [2, 7]: 98.00%
- Pf_120h_%Growth_Rep1 [3, 8]: 86.15%
- Pf_120h_%Growth_Rep2 [3, 9]: 82.07%
